What was measured:
[1] = system: transplanted human psoriasis skin; experiment: Psoriasis model, hematoxyline staining (epidermal thickness); assay type: in vivo, BNX mice; conditions: 3 weeks, placebo 138±24 μm; for Epidermal thickness: three mice
Procedure: (§1) The psoriasis model described by Wrone-Smith and Nickoloff (1996) was used. 5 mm non-lesional skin biopsies from five psoriatic patients were each split in four pieces and transplanted on 20 immuno-deficient BNX mice, i.e. four groups of five mice each. Psoriasis was induced in all mice by injection with donors super-antigen-activated blood cells. After psoriasis had developed, mice were treated for 3 weeks by applying either placebo-cream, cream containing a corticosteroid (betamethasone), 1% Etomoxir or 30% Etomoxir daily on the skin. The cream containing 30% Etomoxir was removed after 30 minutes while the other creams were left on the skin.
(§2) After the treatment period, liver and blood of the mice were analyzed for their CPT1 activity and GOT/GPT levels. Furthermore, the epidermal thickness, in particular the depth of reti ridges, the number of Ki67 positive cells and the percentage of ULEX-positive cells (this marker stains the upper layers of the epidermis in normal skin and the whole epidermis in psoriatic skin) in the epidermis were determined.
(§3) Histological stainings are performed on cryo-preserved tissues. Diagonal cross sections (8μm) are cut (see FIG. 20), covering all skin-layers (located at the top layer are the stratum corneus and epidermis of the transplanted human biopsy and at the bottom the murine tissue is located, forming a base for the transplanted human skin).
Sections are stained with hematoxyline and evaluated at a microscopic magnification of 200×. Two sections taken round the middle of the biopsy are evaluated. Thickness measurements are performed of the total section using a microscopic ocular with intergraded graduation-lines (ruler). From this, the average epidermal thickness measurements for ridges and the average of the total epidermis (mean of ridges and inter-ridges) are calculated in μm (taken into account magnification factor).

[2] = target: T1, CPT1 (Mus musculus, UniProt P97742); experiment: CPT1 activity in liver of BNX mice after three weeks topical treatment; assay type: in vivo; conditions: 3 weeks, placebo set 100%
T1 construct: A small piece of frozen liver (appr. 200 mg) was homogenized in 600 μl of cold sucrose buffer; from tissue; host or cells: liver of BNX mice (mitochondrial enriched fraction)
T1 sequence (P97742 1-773): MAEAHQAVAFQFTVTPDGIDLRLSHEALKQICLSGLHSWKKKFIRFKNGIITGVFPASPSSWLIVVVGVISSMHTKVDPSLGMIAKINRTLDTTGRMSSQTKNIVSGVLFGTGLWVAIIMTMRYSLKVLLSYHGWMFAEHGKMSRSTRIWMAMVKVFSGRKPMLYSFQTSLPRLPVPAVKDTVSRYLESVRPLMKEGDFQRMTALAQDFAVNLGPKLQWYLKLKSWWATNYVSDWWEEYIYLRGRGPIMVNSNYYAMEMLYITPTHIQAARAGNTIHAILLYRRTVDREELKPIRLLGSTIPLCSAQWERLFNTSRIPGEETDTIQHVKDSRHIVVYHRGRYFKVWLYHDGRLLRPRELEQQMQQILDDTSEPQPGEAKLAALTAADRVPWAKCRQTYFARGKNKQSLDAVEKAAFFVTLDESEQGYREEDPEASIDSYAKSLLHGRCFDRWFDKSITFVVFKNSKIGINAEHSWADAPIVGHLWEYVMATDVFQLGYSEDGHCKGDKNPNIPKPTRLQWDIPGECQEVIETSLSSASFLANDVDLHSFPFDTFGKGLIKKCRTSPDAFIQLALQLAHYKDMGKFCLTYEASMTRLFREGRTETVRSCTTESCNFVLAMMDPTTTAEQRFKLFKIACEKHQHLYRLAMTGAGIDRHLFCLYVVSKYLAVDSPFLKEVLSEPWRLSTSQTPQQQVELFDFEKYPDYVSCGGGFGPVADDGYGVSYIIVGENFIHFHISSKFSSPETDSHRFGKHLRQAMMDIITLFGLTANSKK
Procedure: as §1, §2
(§4) A small piece of frozen liver (appr. 200 mg) was homogenized in 600 μl of cold sucrose buffer by 8-10 strokes with tight pestle of dounce homogenizer. Homogenate was centrifuged at 700×g for 10 min at 4° C. Supernatant was again centrifuged at 20000×g for 20 min at 4° C. Pellet was resuspended in 1400 μl buffer A and kept on ice for further analysis or stored at −80° C.
160 μl of bidestilled water was added to wells of a 96-well plate. For the standard curve 0 μg, 1 μg, 2 μg, 3 μg, 4 μg and 5 μg of BSA (BSA stock: 1 mg/ml from New England Biolabs) was added in duplicates to the first […]. 1 μl of the liver samples and the blood samples were added in duplicates to the wells. Finally 40 μl dye reagent concentrate (Bio-Rad protein assay) was added and mixed by pipetting up and down. After 5 to 30 min OD at 595 was measured versus reagent blank (0 μg BSA). For the calibration curve the OD was plotted against the concentration of BSA and total protein concentration of the liver samples was calculated in μg/μl.
20 μg of total protein of each liver sample and 300 μg of total protein of each plasma sample were added in 1.5 ml Eppendorf tubes (safe lock) and filled up to 100 μl with buffer A (all in duplicates). Background control was buffer A only. The tubes were preincubated for exactly 5 min at 30° C. prior to the addition of 105 μl of reaction mix. Again samples were incubated for exactly 5 min at 30° C. Reactions were stopped by adding 800 μl of 6% perchloric acid and stored on ice. […] Finally, either 100 μl (liver samples) or 150 μl (plasma samples) of the butanol phase were mixed with 1 ml Microscint0 in a 24 well-plate and cpm values were measured with the scintillation counter from Canberra Packard. […]

[3] = system: CPT1; experiment: CPT1 activity in total blood cells of BNX mice after three weeks topical treatment; assay type: in vivo; conditions: 3 weeks
Procedure: as §1
as §2, with “determined. […]” for “determined.”
160 μl of bidestilled water was added to wells of a 96-well plate. […] After 5 to 30 min OD at 595 was measured versus reagent blank (0 μg BSA). For the calibration curve the OD was plotted against the concentration of BSA and total protein concentration of the liver samples was calculated in μg/μl. […]

[4] = Animal experiment, deaths during topical treatment; assay type: in vivo, BNX mice; conditions: 30% Etomoxir cream left on the skin; probably because they licked off the cream
Procedure: as §1, with “The cream containing 30% Etomoxir was removed after 30 minutes while the other creams were left on the skin.” left out

[5] = target: T1, CPT1; experiment: Inhibition of CPT1 activity by the salt of Etomoxir in vitro, mitochondrial enriched fractions of liver; assay type: biochemical, BNX mice
Procedure: as §4
(§5) 2 μl of a 100× stock of Etomoxir-salt (0; 0.1; 1.0 and 10 mM) dissolved in DMSO were added in 1.5 ml Eppendorf tubes in duplicates. 2× activation mix was premixed on ice with either 15 μg of total protein of each liver sample or 300 μg of total protein of each plasma sample (final volume per reaction was 98 μl). 98 μl of this mix was added to each tube containing the 2 μl of inhibitor and tubes were left at 30° C. for exactly 30 min. […] Finally, either 150 μl of the butanol phase were mixed with 1 ml Microscint0 in a 24 well-plate and cpm values were measured with the scintillation counter from Canberra Packard. P values were calculated with the t-test of the SigmaPlot 2001 software.
(§6) To determine the sensitivity of the CPT1 activity in response to Etomoxir, cell pellet samples were pooled and treated with increasing amounts of Etomoxir. […] 85% of the measured activity in the blood cells was Etomoxir insensitive and therefore the relevance of this assay is questionable.

[6] = system: transplanted human psoriasis skin; experiment: Psoriasis model, Ki-67 staining (keratinocyte proliferation); assay type: in vivo, BNX mice; conditions: 3 weeks
Procedure: as §1, §2, §3
Sections are stained with mu-∝Hu monoclonal Ab and evaluated at a microscopic magnification of 400×. Two representative sections are evaluated. The total number of positive cells are counted of the total section and indicated per unit-length. A unit-length is a microscopic view (of a part of the section) at a magnification of 400× (see FIG. 20). Per section several unit-lengths are counted (minimum of 8). From this the average number of Ki-67 positive cells per unit-length is calculated.

[7] = system: transplanted human psoriasis skin; experiment: Psoriasis model, ULEX staining (keratinocyte differentiation); assay type: in vivo, BNX mice; conditions: 3 weeks, placebo 55±19%
Procedure: as §1, §2, §3
Sections are stained with biotinylated Europaeus Agglutinin 1 and evaluated at a microscopic magnification of 200×. Two representative sections are evaluated. The thickness of both the ULEX positive cell-layer (distribution of ULEX) as well as the ULEX negative layer of the total section is measured using a microscopic ocular with intergraded graduation-lines (ruler). From this the average ratio of ULEX positive differentiation is calculated (indicated as percentage of epidermis positive for ULUX).

[8] = system: CPT1; experiment: Inhibition of CPT1 activity by the salt of Etomoxir in vitro, pooled blood cell extract; assay type: biochemical, BNX mice
Procedure: 500 μl of total blood cells were frozen and drawn three tines to break up the cells. Samples were diluted by adding 500 μl buffer A and then centrifuged at 20000×g for 20 min at 4° C. Solid Pellets were resuspended in 200 μl buffer A and kept on ice for further analysis or stored at −80° C.
as §5, with “min. Then 105 μl of reaction mix were added to start the CPT1 reaction. Again samples were incubated for exactly 5 min at 30° C.” for “min.”
as §6

| Compound | Epidermal thickness ([1]; 1% Etomoxir cream daily) | Epidermal thickness ([1]; 30% Etomoxir cream daily (removed after 30 minutes)) | CPT1 activity in liver compared to the placebo group ([2]; 1% Etomoxir cream daily) | CPT1 activity in liver compared to the placebo group ([2]; 30% Etomoxir cream daily, excluding liver of dead animals) | CPT1 activity in liver compared to the placebo group ([2]; 30% Etomoxir cream daily, including the two dead animals) | CPT1 activity in blood cell pellets versus placebo group ([3]; 1% Etomoxir cream daily, p value 0.01) | CPT1 activity in blood cell pellets versus placebo group ([3]; 30% Etomoxir cream daily, p value>0.05) | Deaths of animals [4] | Sensitivity of CPT1 activity measured in liver to Etomoxir [5] | Number of Ki67 positive cells as compared to the placebo group ([6]; 1% Etomoxir cream) | Number of Ki67 positive cells as compared to the placebo group ([6]; 30% Etomoxir cream) | Percentage of ULEX-positive cells in the epidermis (differentiation rate) ([7]; 1% Etomoxir cream) | Percentage of ULEX-positive cells in the epidermis (differentiation rate) ([7]; 30% Etomoxir cream) | Reduction of CPT1 activity in pooled blood cell pellet samples ([8]; increasing amounts of Etomoxir (salt), activity without Etomoxir = 100%) | Part of the measured CPT1 activity in blood cells that is Etomoxir insensitive ([8]; pooled cell pellet samples) | Average epidermal thickness ([1]; corticosteroid cream daily) | CPT1 activity in liver compared to the placebo group ([2]; corticosteroid (betamethasone) cream daily) | Number of Ki67 positive cells ([6]; corticosteroid cream daily, placebo 55±37) | Percentage of ULEX-positive cells in the epidermis ([7]; corticosteroid cream daily) |
| --- | --- | --- | --- | --- | --- | --- | --- | --- | --- | --- | --- | --- | --- | --- | --- | --- | --- | --- | --- |
| CCOC(=O)C1(CCCCCCOc2ccc(Cl)cc2)CO1 (stereo not shown) [Etomoxir, 2-(6-(4-chlorophenoxy)hexyl)oxirane-2-carboxylic acid ethyl ester] | 88±10 μm | 69±4 μm | 73% | 59% | 40% | significantly higher | not significantly different | two out of five animals died | highly Etomoxir sensitive | significant decrease | significant decrease | 17±11% | 18±8% | ~15% | ~85% |  |  |  |  |
| C[C@H]1C[C@H]2[C@@H]3CCC4=CC(=O)C=C[C@]4(C)[C@@]3(F)[C@@H](O)C[C@]2(C)[C@@]1(O)C(=O)CO [corticosteroid, betamethasone] |  |  |  |  |  |  |  |  |  |  |  |  |  |  |  | 81±9 μm | 83% | 10±6 positive cells/unit-length | 24±7% |
